Measurements taken from ChEMBL document CHEMBL4321815, “Discovery of an Extremely Potent Thiazine-Based β-Secretase Inhibitor with Reduced Cardiovascular and Liver Toxicity at a Low Projected Human Dose” (J Med Chem, 2019).

Experiments:
[1] = test system: Homo sapiens; test: In vivo inhibition of BACE1 in human assessed as reduction in amyloidbeta level at 75 mg administered once daily relative to control; format: functional
[2] = species: Canis familiaris; test: animal or person; format: functional, organism-based; conditions: Canis lupus familiaris, Beagle
[3] = test system: Canis familiaris; test: In vivo inhibition of BACE1 in po dosed Beagle dog assessed as plasma level causing 50% reduction in amyloidbeta42 level in CSF administered as single dose measured after 4 to 49 hrs; format: functional, organism-based; conditions: Canis lupus familiaris
[4] = test system: Homo sapiens; test: In vivo inhibition of BACE1 in human assessed as reduction in amyloidbeta level at 40 mg administered once daily relative to control; format: functional

| EC50 [2] | EC50 [3] | Structure (SMILES) | inhibition (INH) [1] | inhibition (INH) [4] |
| --- | --- | --- | --- | --- |
| 8.1 nM | 22 nM | C[C@H]1OC[C@]2(c3cc(NC(=O)c4cnc(C(F)F)cn4)ccc3F)N=C(N)SC[C@H]12 [ELENBECESTAT] | 80% | – |
| – | 34 nM | CN1C(N)=N[C@](C)(c2cc(NC(=O)c3ccc(F)cn3)ccc2F)CS1(=O)=O [VERUBECESTAT] | – | 80% |
